Assay results published in US20080090805A1, “CB-1 MODULATING COMPOUNDS AND THEIR USE” (ACADIA PHARMACEUTICALS INC., priority 2005, published 2008).

Molecular target: CB1 (mutant) (Homo sapiens, UniProt P21554)
Test: R-SAT functional receptor assay, CB1 (mutant, truncated after amino acid 417)
Assay type: cell-based
Details: Appendix A, R-SAT CB1; for IC50: receptor form (mutant or wild-type) not stated, read-out: pIC50 (converted); for Emax: receptor form not stated, relative to SR141716 (100%), read-out: % Inhibition

Sequence of CB1 (mutant) (P21554 1-417, change not shown): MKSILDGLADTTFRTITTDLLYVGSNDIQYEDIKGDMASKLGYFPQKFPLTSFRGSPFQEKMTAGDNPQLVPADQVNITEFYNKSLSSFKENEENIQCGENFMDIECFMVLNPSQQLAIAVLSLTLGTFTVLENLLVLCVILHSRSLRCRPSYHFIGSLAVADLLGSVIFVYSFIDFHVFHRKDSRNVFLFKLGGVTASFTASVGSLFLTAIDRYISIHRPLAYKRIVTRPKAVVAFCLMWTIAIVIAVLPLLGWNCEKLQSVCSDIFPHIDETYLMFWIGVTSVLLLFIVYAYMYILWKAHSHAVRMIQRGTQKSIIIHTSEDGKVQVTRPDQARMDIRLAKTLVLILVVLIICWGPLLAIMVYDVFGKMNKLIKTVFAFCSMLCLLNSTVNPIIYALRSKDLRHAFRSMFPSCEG

IC50 [nM] | Emax [%] | Structure (SMILES)
50.1 | 92 | CCCC1=Nc2cc(C(=O)NCCCOCC)ccc2Sc2ccccc21
158 | 80 | CCCC1=Nc2cc(C(=O)NN3CCCCC3)ccc2Sc2ccccc21
200 | 90 | CC(C)CC1=Nc2cc(C(=O)NN3CCCCC3)ccc2Sc2ccccc21
200 | 107 | CCCC1=Nc2cc(C(=O)NCCOC)ccc2Sc2ccccc21
200 | 81 | CCONC(=O)c1ccc2c(c1)N=C(c1cccc(F)c1)c1ccccc1S2
200 | 77 | CCONC(=O)c1ccc2c(c1)N=C(c1sccc1C)c1ccccc1S2
200 | 87 | CCONC(=O)c1ccc2c(c1)N=C(c1ccc(Cl)cc1F)c1ccccc1S2
200 | 108 | CCCC1=Nc2cc(C(=O)N3CCC(C(=O)OCC)CC3)ccc2Sc2ccccc21
251 | 108 | CCCC1=Nc2cc(C(=O)N3CCN(c4ccc(F)cc4)CC3)ccc2Sc2ccccc21
251 | 80 | CCCCNC(=O)c1ccc2c(c1)N=C(c1ccccc1OC)c1ccccc1S2
251 | 100 | CCCCCC1=Nc2cc(C(=O)NN3CCCCC3)ccc2Sc2ccccc21
251 | 105 | Cc1ccc(N2CCN(C(=O)c3ccc4c(c3)N=C(CC(C)C)c3ccccc3S4)CC2)c(C)c1
251 | 83 | Cc1cc(Cl)ccc1C1=Nc2cc(C(=O)NC3CCCCC3)ccc2Sc2ccccc21
251 | 103 | CCCC1=Nc2cc(C(=O)NCCc3ccc(SC)cc3)ccc2Sc2ccccc21
251 | 77 | CCCC1=Nc2cc(C(=O)NC3CCN(C(=O)OCC)CC3)ccc2Sc2ccccc21

The remaining lines, values behind:

Structure (SMILES) | IC50 [nM] | Emax [%]
COc1ccc(C2=Nc3cc(C(=O)NCc4ccc(S(N)(=O)=O)cc4)ccc3Sc3ccccc32)cc1 | 158 | 84
CCCC1=NC2=C(CCC(C(=O)NCCN(CC)CCNc3cc(Cl)ccc3C)=C2)Sc2ccccc21 | 158 | 113
Cc1ccsc1C1=Nc2cc(C(=O)NCc3ccncc3)ccc2Sc2ccccc21 | 158 | 92
O=C(NCCc1cccnc1)c1ccc2c(c1)N=C(c1ccccc1Cl)c1ccccc1S2 | 158 | 76
O=C(NN1CCOCC1)c1ccc2c(c1)N=C(c1cccc(F)c1)c1ccccc1S2 | 200 | 63
O=C(NN1CCCC1)c1ccc2c(c1)N=C(c1ccccc1F)c1ccccc1S2 | 200 | 69
O=C(c1ccc2c(c1)N=C(N1CCCCC1)c1ccccc1S2)N1CCCCC1 | 200 | 89
CCCCCC1=Nc2cc(C(=O)N3CCN(c4ccc(C)cc4C)CC3)ccc2Sc2ccccc21 | 200 | 107
CONC(=O)c1ccc2c(c1)N=C(c1ccc(Cl)cc1F)c1ccccc1S2 | 200 | 69
O=C(NNCc1ccccc1)c1ccc2c(c1)N=C(c1ccc(Cl)cc1)c1ccccc1S2 | 200 | 66
O=C(Cc1ccccc1)NNC(=O)c1ccc2c(c1)N=C(N1CCCCC1)c1ccccc1S2 | 200 | 69
O=C(NCCc1cccnc1)c1ccc2c(c1)N=C(c1ccc(Cl)cc1Cl)c1ccccc1S2 | 200 | 74
O=C(NCc1cccs1)c1ccc2c(c1)N=C(c1ccccc1Cl)c1ccccc1S2 | 200 | 87
O=C(NC1CCCCNC1=O)c1ccc2c(c1)N=C(c1ccc(F)cc1)c1ccccc1S2 (stereo not drawn) | 251 | 83
O=C(NN1CCOCC1)c1ccc2c(c1)N=C(c1ccc(Cl)cc1)c1ccccc1S2 | 251 | 75
O=C(NNC(=O)c1ccc2c(c1)N=C(c1ccc(Br)cc1)c1ccccc1S2)c1ccccc1 | 251 | 88
CCCC1=NC2=C(CCC(C(=O)N3CCN(c4ccccc4F)CC3)=C2)Sc2ccccc21 | 251 | 97
CC(C)NC(=O)c1ccc2c(c1)N=C(c1ccccc1F)c1ccccc1S2 | 251 | 82
